Molecules are shown by their SMILES. Changes are numbered by the printed parent chain.

Holding throughout (test): FRET ratio (YFP/CFP, […] nm) titration of purified sensor
Holding throughout (type): binding

Test [1] concerns the target T1, NrtA (FLIP-NT; CFP_NrtA_YFP) (Synechocystis sp. PCC 6803, UniProt P73452, Q155I).
T1 construct: FRET sensor: His6-CFP-NrtA-YFP; NrtA without signal peptide (first 36 residues), stop and penultimate codon removed (1227 bp, 409 residues); E. coli BL21-CodonPlus(DE3), Ni-NTA
T1 sequence (P73452 37-445 Q155I): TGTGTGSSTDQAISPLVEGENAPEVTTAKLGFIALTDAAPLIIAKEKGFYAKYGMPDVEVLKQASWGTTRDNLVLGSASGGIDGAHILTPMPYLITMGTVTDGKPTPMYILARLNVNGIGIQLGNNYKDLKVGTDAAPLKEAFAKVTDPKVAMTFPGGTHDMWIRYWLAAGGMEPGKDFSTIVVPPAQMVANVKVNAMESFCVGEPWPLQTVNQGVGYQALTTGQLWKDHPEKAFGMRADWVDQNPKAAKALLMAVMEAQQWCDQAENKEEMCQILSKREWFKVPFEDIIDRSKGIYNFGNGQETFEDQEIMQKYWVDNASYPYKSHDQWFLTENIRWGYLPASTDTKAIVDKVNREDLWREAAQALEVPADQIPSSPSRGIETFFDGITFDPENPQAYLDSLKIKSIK

The target in test [2] is T2, NrtA (FLIP-NT; CFP_NrtA_YFP) (Synechocystis sp. PCC 6803, UniProt P73452).
T2 construct: FRET sensor: His6-CFP-NrtA-YFP; NrtA without signal peptide (first 36 residues), stop and penultimate codon removed (1227 bp, 409 residues); E. coli BL21-CodonPlus(DE3), Ni-NTA
T2 sequence (P73452 37-445): T1 sequence (P73452 37-445 Q155I) with I119Q

Test [3] has as its target T3, NrtA (FLIP-NT; CFP_NrtA_YFP) (Synechocystis sp. PCC 6803, UniProt P73452, G240Q).
T3 construct: FRET sensor: His6-CFP-NrtA-YFP; NrtA without signal peptide (first 36 residues), stop and penultimate codon removed (1227 bp, 409 residues); E. coli BL21-CodonPlus(DE3), Ni-NTA
T3 sequence (P73452 37-445 G240Q): T1 sequence (P73452 37-445 Q155I) with I119Q, G204Q

Test [4] deals with T4, NrtA (FLIP-NT; CFP_NrtA_YFP) (Synechocystis sp. PCC 6803, UniProt P73452, W102A).
T4 construct: FRET sensor: His6-CFP-NrtA-YFP; NrtA without signal peptide (first 36 residues), stop and penultimate codon removed (1227 bp, 409 residues); E. coli BL21-CodonPlus(DE3), Ni-NTA
T4 sequence (P73452 37-445 W102A): T1 sequence (P73452 37-445 Q155I) with W66A, I119Q

Turning to `O=[N+]([O-])O` [nitrate], the Kd (commonly the equilibrium constant for the complex coming apart) came out at 1000 nM in test [1], 5 µM in test [2], 32 µM in test [3] and 56 µM in test [4].
